The NIST ThermoML archive (doi:10.1021/je060457+)
Numbers after ± are expanded uncertainties.

Assay: refractive index (Na D-line) (dimensionless); xn = mol fraction of the nth substance listed
Details: 101 kPa, Liquid, Standard Abbe refractometry

CNCCO [2-(methylamino)ethanol] + O
refractive index (293.15 K, x1 = 0.0493): 1.3559 ± 0.0004 | refractive index (293.15 K, x1 = 0.0657): 1.3625 ± 0.0004 | refractive index (293.15 K, x1 = 0.1054): 1.3767 ± 0.0004 | refractive index (293.15 K, x1 = 0.1987): 1.3997 ± 0.0005 | refractive index (293.15 K, x1 = 0.301): 1.4151 ± 0.0004 | refractive index (293.15 K, x1 = 0.3834): 1.4235 ± 0.0004 | refractive index (293.15 K, x1 = 0.5041): 1.4288 ± 0.0005 | refractive index (293.15 K, x1 = 0.6): 1.4324 ± 0.0005 | refractive index (293.15 K, x1 = 0.6974): 1.4347 ± 0.0006 | refractive index (293.15 K, x1 = 0.8008): 1.4366 ± 0.0006 | refractive index (293.15 K, x1 = 0.9031): 1.4381 ± 0.0006 | refractive index (293.15 K, x1 = 1): 1.4393 ± 0.0006 | refractive index (298.15 K, x1 = 0.0493): 1.3552 ± 0.0004 | refractive index (298.15 K, x1 = 0.0657): 1.3617 ± 0.0004 | refractive index (298.15 K, x1 = 0.1054): 1.3754 ± 0.0005 | refractive index (298.15 K, x1 = 0.1987): 1.3983 ± 0.0005 | refractive index (298.15 K, x1 = 0.301): 1.4137 ± 0.0005 | refractive index (298.15 K, x1 = 0.3834): 1.4218 ± 0.0006 | refractive index (298.15 K, x1 = 0.5041): 1.4272 ± 0.0006 | refractive index (298.15 K, x1 = 0.6): 1.4306 ± 0.0006 | refractive index (298.15 K, x1 = 0.6974): 1.4329 ± 0.0006 | refractive index (298.15 K, x1 = 0.8008): 1.4348 ± 0.0006 | refractive index (298.15 K, x1 = 0.9031): 1.4363 ± 0.0006 | refractive index (298.15 K, x1 = 1): 1.4375 ± 0.0006 | refractive index (303.15 K, x1 = 0.0493): 1.3544 ± 0.0004 | refractive index (303.15 K, x1 = 0.0657): 1.3608 ± 0.0005 | refractive index (303.15 K, x1 = 0.1054): 1.3744 ± 0.0005 | refractive index (303.15 K, x1 = 0.1987): 1.3967 ± 0.0005 | refractive index (303.15 K, x1 = 0.301): 1.412 ± 0.0005 | refractive index (303.15 K, x1 = 0.3834): 1.4201 ± 0.0005 | refractive index (303.15 K, x1 = 0.5041): 1.4253 ± 0.0006 | refractive index (303.15 K, x1 = 0.6): 1.4289 ± 0.0006 | refractive index (303.15 K, x1 = 0.6974): 1.4311 ± 0.0006 | refractive index (303.15 K, x1 = 0.8008): 1.433 ± 0.0006 | refractive index (303.15 K, x1 = 0.9031): 1.4344 ± 0.0006 | refractive index (303.15 K, x1 = 1): 1.4356 ± 0.0006 | refractive index (308.15 K, x1 = 0.0493): 1.3536 ± 0.0005 | refractive index (308.15 K, x1 = 0.0657): 1.3599 ± 0.0005 | refractive index (308.15 K, x1 = 0.1054): 1.3732 ± 0.0005 | refractive index (308.15 K, x1 = 0.1987): 1.3956 ± 0.0005 | refractive index (308.15 K, x1 = 0.301): 1.4105 ± 0.0005 | refractive index (308.15 K, x1 = 0.3834): 1.4186 ± 0.0005 | refractive index (308.15 K, x1 = 0.5041): 1.4239 ± 0.0006 | refractive index (308.15 K, x1 = 0.6): 1.4272 ± 0.0006 | refractive index (308.15 K, x1 = 0.6974): 1.4294 ± 0.0006 | refractive index (308.15 K, x1 = 0.8008): 1.4313 ± 0.0006 | refractive index (308.15 K, x1 = 0.9031): 1.4328 ± 0.0006 | refractive index (308.15 K, x1 = 1): 1.4339 ± 0.0007 | refractive index (313.15 K, x1 = 0.0493): 1.3527 ± 0.0005 | refractive index (313.15 K, x1 = 0.0657): 1.3589 ± 0.0005 | refractive index (313.15 K, x1 = 0.1054): 1.372 ± 0.0005 | refractive index (313.15 K, x1 = 0.1987): 1.394 ± 0.0006 | refractive index (313.15 K, x1 = 0.301): 1.4091 ± 0.0005 | refractive index (313.15 K, x1 = 0.3834): 1.417 ± 0.0006 | refractive index (313.15 K, x1 = 0.5041): 1.4221 ± 0.0006 | refractive index (313.15 K, x1 = 0.6): 1.4254 ± 0.0006 | refractive index (313.15 K, x1 = 0.6974): 1.4275 ± 0.0006 | refractive index (313.15 K, x1 = 0.8008): 1.4293 ± 0.0006 | refractive index (313.15 K, x1 = 0.9031): 1.4306 ± 0.0007 | refractive index (313.15 K, x1 = 1): 1.4318 ± 0.0007 | refractive index (318.15 K, x1 = 0.0493): 1.3517 ± 0.0005 | refractive index (318.15 K, x1 = 0.0657): 1.3579 ± 0.0005 | refractive index (318.15 K, x1 = 0.1054): 1.3708 ± 0.0005 | refractive index (318.15 K, x1 = 0.1987): 1.3921 ± 0.0005 | refractive index (318.15 K, x1 = 0.301): 1.4074 ± 0.0006 | refractive index (318.15 K, x1 = 0.3834): 1.4151 ± 0.0006 | refractive index (318.15 K, x1 = 0.5041): 1.4204 ± 0.0006 | refractive index (318.15 K, x1 = 0.6): 1.4238 ± 0.0006 | refractive index (318.15 K, x1 = 0.6974): 1.4257 ± 0.0006 | refractive index (318.15 K, x1 = 0.8008): 1.4274 ± 0.0006 | refractive index (318.15 K, x1 = 0.9031): 1.4288 ± 0.0006 | refractive index (318.15 K, x1 = 1): 1.4298 ± 0.0007 | refractive index (323.15 K, x1 = 0.0493): 1.3507 ± 0.0005 | refractive index (323.15 K, x1 = 0.0657): 1.3568 ± 0.0005 | refractive index (323.15 K, x1 = 0.1054): 1.3696 ± 0.0007 | refractive index (323.15 K, x1 = 0.1987): 1.3907 ± 0.0009 | refractive index (323.15 K, x1 = 0.301): 1.4055 ± 0.0008 | refractive index (323.15 K, x1 = 0.3834): 1.4134 ± 0.0008 | refractive index (323.15 K, x1 = 0.5041): 1.4187 ± 0.0006 | refractive index (323.15 K, x1 = 0.6): 1.422 ± 0.0007 | refractive index (323.15 K, x1 = 0.6974): 1.4239 ± 0.0006 | refractive index (323.15 K, x1 = 0.8008): 1.4257 ± 0.0006 | refractive index (323.15 K, x1 = 0.9031): 1.4268 ± 0.0007 | refractive index (323.15 K, x1 = 1): 1.4278 ± 0.0007
